Source: patent US9422333B2, “HCV protease inhibitors and uses thereof” (Celgene Avilomics Research, Inc., priority 2008, dated 2016)

Biological target: HCV NS3/4A wild type (wt) (Hepatitis C virus genotype 1b (isolate BK) (HCV), UniProt P26663)
Assay: Mass spectrometric analysis (MALDI-TOF) of intact protease incubated with test compound
Format: binding
Details: 10-fold excess of compound
Description: Mass spectrometric analysis of HCV wild type or HCV variant C159S in the presence of test compound is performed. 100 pmols of HCV wild type (Bioenza CA) is incubated with test compound for 1 hr and 3 hrs at 10-fold access of test compound to protein. 1 ul aliquots of the samples (total volume of 4.24 ul) are diluted with 10 ul of 0.1% TFA prior to micro C4 ZipTipping directly onto the MALDI target using Sinapinic acid as the desorption matrix (10 mg/mL in 0.1% TFA:Acetonitrile 50:50). Analyses are performed on a Shimadzu Biotech Axima TOF^2 (Shimadzu Instruments) matrix-assisted-laser desorption/ionization Time-of-Flight (MALDI-TOF) mass spectrometer. The same procedure is carried out on 100 pmols of HCV C159S mutant of HCV protease for 3 hrs at 10-fold excess of test compound to protein.
(§1) 2 ul aliquots of the samples were diluted with 10 ul of 0.1% TFA prior to micro C4 ZipTipping directly onto the MALDI target using Sinapinic acid as the desorption matrix (10 mg/ml in 0.1% TFA:Acetonitrile 50:50). For intact protein mass measurement the instrument was set in linear mode using a pulsed extraction setting of 24,500 and apomyoglobin as the standard to calibrate the instrument.
as §1, with “[…]” for “C4”, “20:80).” for “50:50).”

Structure (SMILES) | covalent modification of protein (reaction with compound, mass spectrometry) (3 hr incubation) | mass increase of new protein species versus protein with no compound (3 hr incubation) | covalent modification of protein (reaction with compound, mass spectrometry) (1 hr incubation)
C=CC(=O)NC[C@H](NC(=O)[C@@H](NC(=O)c1cnccn1)C1CCCCC1)C(=O)N1C[C@@H]2CCC[C@@H]2[C@H]1C(=O)N[C@@H](CCC)C(=O)C(=O)NC1CC1 [Compound I-11, (1S,3aR,6aS)-2-((S)-3-acrylamido-2-((S)-2-cyclohexyl-2-(pyrazine-2-carboxamido)acetamido)propanoyl)-N—((S)-1-(cyclopropylamino)-1,2-dioxohexan-3-yl)octahydrocyclopenta[c]pyrrole-1-carboxamide] | reacted significantly to produce a new species | approximately 703 Da | 
CCC[C@H](NC(=O)[C@@H]1[C@H]2CCC[C@H]2CN1C(=O)[C@@H](NC(=O)[C@@H](NC(=O)c1cnccn1)C1CCCCC1)C(C)(C)C)C(=O)C(=O)NC1CC1 [telaprevir, reference compound] |  |  | no reaction
